These results are taken from US9273040B2 (Merck Sharp & Dohme Corp., priority 2011, dated 2016).

What all share (assay type): cell-based
In assay [1] the target is T1, human Nav1.5 channels stably expressed in HEK 293 cells (Homo sapiens, UniProt Q14524).
T1 construct: expressed in transfected cells
Description: PatchXpress 7000 automated patch-clamp, sodium current. The following applies: selectivity over Nav1.5. The procedure, abridged:
(§1)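 IC50 values came from Hill-equation fits of rundown-corrected inhibition. PatchXpress recordings at 22° C held cells 20 mV negative to V0.5 inact and applied 10 Hz trains of 30 ms steps to −20 mV (Nav1.7) or an 8000 ms prepulse 7 mV positive to V0.5 inact. […]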

Assay [2] has as its target T2, human Nav1.7 channels stably expressed in HEK 293 cells (Homo sapiens, UniProt Q15858).
T2 construct: expressed in transfected cells
The assay is described as above. The following applies: 22° C., read-out: potency for the Nav 1.7 sodium ion channel (as measured by PatchXpress). The procedure, abridged: as §1

Assay [3] addresses T1, human Nav1.5 channels stably expressed in HEK 293 cells. Briefly: IonWorks Quattro automated patch-clamp, sodium current, inactivated state block. The following applies: selectivity over Nav1.5.
Assay [4] addresses T2, human Nav1.7 channels stably expressed in HEK 293 cells. The assay is described as above. The following applies: read-out: potency for the Nav 1.7 sodium ion channel (as measured by IonWorks).

T1 sequence (Q14524 whole entry): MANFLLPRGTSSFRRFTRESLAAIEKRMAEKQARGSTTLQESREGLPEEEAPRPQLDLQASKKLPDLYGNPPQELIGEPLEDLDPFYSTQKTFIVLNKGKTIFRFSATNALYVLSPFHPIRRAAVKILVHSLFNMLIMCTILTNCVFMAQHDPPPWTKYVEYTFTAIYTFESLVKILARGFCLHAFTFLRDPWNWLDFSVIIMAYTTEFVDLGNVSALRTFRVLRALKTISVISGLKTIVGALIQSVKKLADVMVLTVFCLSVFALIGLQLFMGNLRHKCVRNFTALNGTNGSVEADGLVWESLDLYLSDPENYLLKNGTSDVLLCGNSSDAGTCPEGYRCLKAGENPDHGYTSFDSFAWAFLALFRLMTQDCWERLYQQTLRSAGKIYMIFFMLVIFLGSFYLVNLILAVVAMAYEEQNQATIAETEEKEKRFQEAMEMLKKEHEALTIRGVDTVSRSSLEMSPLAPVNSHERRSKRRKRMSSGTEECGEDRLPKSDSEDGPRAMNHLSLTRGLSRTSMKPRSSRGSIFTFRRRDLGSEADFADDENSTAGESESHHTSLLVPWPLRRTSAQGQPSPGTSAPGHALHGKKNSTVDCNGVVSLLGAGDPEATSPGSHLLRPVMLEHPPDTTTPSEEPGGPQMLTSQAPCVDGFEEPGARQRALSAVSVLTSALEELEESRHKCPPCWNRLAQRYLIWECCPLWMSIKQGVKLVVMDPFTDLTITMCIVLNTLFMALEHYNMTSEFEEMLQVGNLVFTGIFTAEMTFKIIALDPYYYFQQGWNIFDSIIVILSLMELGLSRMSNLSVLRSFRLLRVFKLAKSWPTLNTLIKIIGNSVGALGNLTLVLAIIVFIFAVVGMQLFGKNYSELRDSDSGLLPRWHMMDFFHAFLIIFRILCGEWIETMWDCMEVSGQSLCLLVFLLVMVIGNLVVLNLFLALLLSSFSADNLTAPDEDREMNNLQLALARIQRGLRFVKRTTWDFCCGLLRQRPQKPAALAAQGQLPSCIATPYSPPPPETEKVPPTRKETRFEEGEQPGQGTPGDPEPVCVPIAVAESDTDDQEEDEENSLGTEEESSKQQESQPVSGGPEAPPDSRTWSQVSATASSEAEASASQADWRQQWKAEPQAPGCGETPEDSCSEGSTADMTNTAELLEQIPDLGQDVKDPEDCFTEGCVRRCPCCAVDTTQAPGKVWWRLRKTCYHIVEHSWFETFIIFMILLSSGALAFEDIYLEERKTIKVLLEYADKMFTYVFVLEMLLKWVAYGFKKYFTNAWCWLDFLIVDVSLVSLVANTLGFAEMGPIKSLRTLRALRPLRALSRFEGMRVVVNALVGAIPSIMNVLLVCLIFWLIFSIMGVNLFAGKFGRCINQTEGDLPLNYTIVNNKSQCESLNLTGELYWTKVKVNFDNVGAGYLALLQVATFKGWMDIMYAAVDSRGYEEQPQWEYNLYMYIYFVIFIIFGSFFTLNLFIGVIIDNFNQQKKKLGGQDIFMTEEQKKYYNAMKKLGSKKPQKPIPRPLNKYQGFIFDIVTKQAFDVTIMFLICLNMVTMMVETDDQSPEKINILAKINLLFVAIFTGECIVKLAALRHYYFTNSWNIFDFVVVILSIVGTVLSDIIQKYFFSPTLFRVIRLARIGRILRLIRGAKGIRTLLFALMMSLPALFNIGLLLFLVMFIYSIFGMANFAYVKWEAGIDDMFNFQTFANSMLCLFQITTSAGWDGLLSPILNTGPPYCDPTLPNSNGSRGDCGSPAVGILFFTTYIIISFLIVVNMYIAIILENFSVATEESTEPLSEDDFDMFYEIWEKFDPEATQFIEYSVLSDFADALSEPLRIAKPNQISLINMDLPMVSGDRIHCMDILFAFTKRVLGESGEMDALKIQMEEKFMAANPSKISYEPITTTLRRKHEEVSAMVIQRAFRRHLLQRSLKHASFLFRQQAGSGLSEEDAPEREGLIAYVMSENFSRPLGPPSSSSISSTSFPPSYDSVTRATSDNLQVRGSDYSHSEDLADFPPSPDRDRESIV
T2 sequence (Q15858 whole entry): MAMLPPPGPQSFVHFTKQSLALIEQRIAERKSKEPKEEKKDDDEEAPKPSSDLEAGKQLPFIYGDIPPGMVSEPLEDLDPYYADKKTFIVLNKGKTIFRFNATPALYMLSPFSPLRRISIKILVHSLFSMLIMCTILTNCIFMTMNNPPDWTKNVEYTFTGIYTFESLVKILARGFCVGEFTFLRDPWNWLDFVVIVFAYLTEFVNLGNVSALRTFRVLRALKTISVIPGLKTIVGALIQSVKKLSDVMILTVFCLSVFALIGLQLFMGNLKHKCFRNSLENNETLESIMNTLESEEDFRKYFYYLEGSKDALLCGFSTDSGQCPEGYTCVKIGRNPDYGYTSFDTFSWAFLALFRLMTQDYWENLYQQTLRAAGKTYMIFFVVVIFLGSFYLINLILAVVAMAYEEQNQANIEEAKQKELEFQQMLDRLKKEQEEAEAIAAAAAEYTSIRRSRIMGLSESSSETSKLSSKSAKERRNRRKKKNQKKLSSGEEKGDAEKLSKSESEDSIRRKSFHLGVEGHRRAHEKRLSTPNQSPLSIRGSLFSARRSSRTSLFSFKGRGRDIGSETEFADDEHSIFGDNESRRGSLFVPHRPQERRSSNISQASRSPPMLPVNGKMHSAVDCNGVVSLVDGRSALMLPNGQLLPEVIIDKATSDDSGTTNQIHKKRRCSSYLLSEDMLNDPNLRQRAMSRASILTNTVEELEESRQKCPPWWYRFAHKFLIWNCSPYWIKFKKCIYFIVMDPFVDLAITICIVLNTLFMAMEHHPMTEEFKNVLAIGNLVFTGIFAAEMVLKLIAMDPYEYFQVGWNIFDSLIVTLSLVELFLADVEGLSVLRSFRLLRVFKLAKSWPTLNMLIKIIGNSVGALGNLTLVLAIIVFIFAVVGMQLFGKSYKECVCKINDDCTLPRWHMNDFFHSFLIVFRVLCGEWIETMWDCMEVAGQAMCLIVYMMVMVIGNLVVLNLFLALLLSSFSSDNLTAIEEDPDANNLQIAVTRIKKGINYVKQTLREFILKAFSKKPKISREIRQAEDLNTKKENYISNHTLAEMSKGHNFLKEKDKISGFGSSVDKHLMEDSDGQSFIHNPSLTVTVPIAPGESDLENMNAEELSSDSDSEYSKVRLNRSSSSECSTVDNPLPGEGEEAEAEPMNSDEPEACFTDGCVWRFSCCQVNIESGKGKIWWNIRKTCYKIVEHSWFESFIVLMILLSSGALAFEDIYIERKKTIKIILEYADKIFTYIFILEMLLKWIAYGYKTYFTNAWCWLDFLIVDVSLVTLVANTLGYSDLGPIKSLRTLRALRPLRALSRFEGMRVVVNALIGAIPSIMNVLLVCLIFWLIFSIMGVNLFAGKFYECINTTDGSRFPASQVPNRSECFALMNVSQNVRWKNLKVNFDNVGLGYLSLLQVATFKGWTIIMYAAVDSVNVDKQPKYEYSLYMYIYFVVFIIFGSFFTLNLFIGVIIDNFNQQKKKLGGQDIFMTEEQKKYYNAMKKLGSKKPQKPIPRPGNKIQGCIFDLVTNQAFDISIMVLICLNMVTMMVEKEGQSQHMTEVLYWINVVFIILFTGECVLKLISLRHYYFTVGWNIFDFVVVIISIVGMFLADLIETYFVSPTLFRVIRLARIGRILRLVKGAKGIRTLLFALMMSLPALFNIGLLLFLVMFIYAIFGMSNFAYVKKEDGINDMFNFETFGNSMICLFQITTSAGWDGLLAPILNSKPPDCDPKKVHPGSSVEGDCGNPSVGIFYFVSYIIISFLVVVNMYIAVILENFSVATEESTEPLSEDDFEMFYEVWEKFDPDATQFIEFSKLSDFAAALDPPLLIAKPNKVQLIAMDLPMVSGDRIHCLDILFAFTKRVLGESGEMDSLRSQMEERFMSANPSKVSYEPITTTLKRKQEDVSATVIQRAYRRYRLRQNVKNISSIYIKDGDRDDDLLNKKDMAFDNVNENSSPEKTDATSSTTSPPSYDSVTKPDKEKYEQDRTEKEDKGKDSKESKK

As for `C[C@@H](c1cccc2c1CNCC2)n1c(=O)oc2cc(S(=O)(=O)Nc3ncns3)c(F)cc21` [Compound 11-6, 5-fluoro-2-oxo-3-[(1S)-1-(1,2,3,4-tetrahydroisoquinolin-8-yl)ethyl]-N-1,2,4-thiadiazol-5-yl-2,3-dihydro-1,3-benzoxazole-6-sulfonamide], the “ratio of Nav 1.5:Nav 1.7 potency, determined by PatchXpress measurement” value (shortened to “ratio … by PatchXpress measurement”) in assay [1] was greater than 93. The IC50 turned out to be 322 nM in assay [2] and 576 nM in assay [4]. The “ratio of Nav 1.5:Nav 1.7 potency, determined by IonWorks measurement” value (“ratio … by IonWorks measurement” below) in assay [3] is reported as 57.

Consider `NC/C=C/c1ccccc1Cn1c(=O)oc2cc(S(=O)(=O)Nc3ncns3)c(F)cc21` [Compound 12-3, 3-{2-[(1E)-3-Aminoprop-1-en-1-yl]benzyl}-5-fluoro-2-oxo-N-(1,2,4-thiadiazol-5-yl)-2,3-dihydro-1,3-benzoxazole-6-sulfonamide], for which, in assay [1], the “ratio … by PatchXpress measurement” value was 1096. For the same compound, the IC50 in assay [2] came out at 27 nM; in assay [4] it was 5 nM. For the same compound, in assay [3], the “ratio … by IonWorks measurement” value was 6084.

Turning to `C[C@H](c1cccc2c1CNCC2)n1c(=O)oc2cc(S(=O)(=O)Nc3ncns3)c(F)cc21` [Compound 13-2, 5-Fluoro-2-oxo-3-[(1R)-1-(1,2,3,4-tetrahydroisoquinolin-8-yl)ethyl]-N-(1,2,4-thiadiazol-5-yl)-2,3-dihydro-1,3-benzoxazole-6-sulfonamide], the “ratio … by PatchXpress measurement” value in assay [1] was found to be 357. Also, the IC50 in assay [2] was found to be 26 nM; in assay [4], 4 nM. For the same compound, the “ratio … by IonWorks measurement” value in assay [3] is 2604.

As to `C[C@H](c1ccccc1)n1c(=O)oc2cc(S(=O)(=O)Nc3ncns3)c(F)cc21` [Compound 13-3, 5-fluoro-2-oxo-3-[(1R)-1-phenylethyl]-N-1,2,4-thiadiazol-5-yl-2,3-dihydro-1,3-benzoxazole-6-sulfonamide], the “ratio … by PatchXpress measurement” value in assay [1] is given as 162. In addition, the IC50 in assay [2] turned out to be 42 nM; in assay [4], 21 nM. For the same compound, the “ratio … by IonWorks measurement” value in assay [3] came out at 418.

With `C[C@@H](c1ccccc1)n1c(=O)oc2cc(S(=O)(=O)Nc3ncns3)c(F)cc21` [Compound 13-4, 5-fluoro-2-oxo-3-[(1S)-1-phenylethyl]-N-1,2,4-thiadiazol-5-yl-2,3-dihydro-1,3-benzoxazole-6-sulfonamide], the “ratio … by PatchXpress measurement” value in assay [1] was 27. Moreover, the IC50 in assay [2] was 167 nM; in assay [4] it was 157 nM. Also, the “ratio … by IonWorks measurement” value in assay [3] is listed as 78.

For the compound `O=c1oc2cc(S(=O)(=O)Nc3ncns3)c(F)cc2n1C(c1ccccc1)C1CC1` (stereo not drawn) [Compound 13-5, 3-[cyclopropyl(phenyl)methyl]-5-fluoro-2-oxo-N-1,2,4-thiadiazol-5-yl-2,3-dihydro-1,3-benzoxazole-6-sulfonamide], the “ratio … by PatchXpress measurement” value in assay [1] is on record as greater than 30. Besides, the IC50 in assay [2] stood at 145 nM; in assay [4], 110 nM. Moreover, the “ratio … by IonWorks measurement” value in assay [3] is given as greater than 300.
